Measurements reported in ChEMBL document CHEMBL1153021, “Phenylphenalenones from the Australian plant Haemodorum simplex” (J Nat Prod, 2009).

Experiments:
P388 = test: Cytotoxicity against mouse P388 cells after 72 hrs by MTT assay; assay type: functional, cell-based; details: P388, 72 h
Bacillus subtilis = test: Antibacterial activity against Bacillus subtilis ATCC 19659 at 30 ug; assay type: functional; details: read-out: IZ
Amorphotheca resinae = test: Antifungal activity against Cladosporium resinae at 100 IU; assay type: functional, organism-based
[1] = system: Trichophyton mentagrophytes; test: Antifungal activity against Trichophyton mentagrophytes ATCC 28185 at 100 IU; assay type: functional, organism-based

Q: How did the IC50 (P388) turn out when COc1cc2c3c(ccc(-c4ccccc4)c3c1OC)C(=O)OC2=O was run?
A: > 26 µM

Q: Which zone of inhibition at 30 µg/disc (Bacillus subtilis) does the source give for O=C(N[C@H](CO)[C@H](O)c1ccc([N+](=O)[O-])cc1)C(Cl)Cl [CHLORAMPHENICOL] here?
A: 12 mm

Q: Which inhibition zone (IZ) (Amorphotheca resinae) does the source give for NYSTATIN here?
A: 10 mm

Q: And the inhibition zone (IZ) [1]?
A: 6 mm

Q: COC1=Cc2cc(OC)c(O)c3c(-c4ccccc4)ccc(c23)C1=O [XIPHIDONE] was tested. Which IC50 (P388) did it give?
A: > 26 µM

Q: Which IC50 (P388) does the source give for COC1=Cc2cc(O)c(O[C@@H]3O[C@H](CO)[C@@H](O)[C@H](O)[C@H]3O)c3c(-c4ccccc4)ccc(c23)C1=O [DILATRIN] here?
A: > 26 µM

Q: For COc1c(O)cc2c3c(ccc(-c4ccccc4)c13)C(=O)OC2=O [HAEMODORONE], which IC50 (P388) is on record?
A: > 26 µM

Q: How did the IC50 (P388) turn out when COc1cc2c3c(ccc(-c4ccccc4)c3c1O[C@@H]1O[C@H](CO)[C@@H](O)[C@H](O)[C@H]1O)C(=O)OC2 [HAEMODOROSE] was run?
A: > 26 µM

Q: COc1c(O)cc2c3c(ccc(-c4ccc(O)cc4)c13)C(=O)OC2=O [HAEMODOROL] was tested. Which IC50 (P388) did it give?
A: > 26 µM
